The source of these data is patent US5368775A, “Corrosion control composition and method for boiler/condensate steam system” (priority 1993, dated 1994).

Read-outs that look alike come from different tables or passages of the source. Some results are limits rather than exact numbers.

In general, pKa refers to the pH at which an ionisable group is half protonated.

The conditions of series [1]: cited from earlier work.
A short description of series [2]: Low pressure (175 psig) package boiler study of DEAE and DMAPA (Table IV). Conditions: for Feedwater concentration / Steam concentration: 175 psig boiler.
Protocol: A study of the effects of a relatively low pressure boiler on DEAE and DMAPA was undertaken. The study was conducted in a 175 psig package boiler. The boiler was operated at 41 cycles with no condensate return so that the amine present in the steam could only come from the feedwater and not from the return of condensate. DEAE and DMAPA were-fed simultaneously at 50 ppm to the feedwater. The boiler was operated overnight to allow the system to equilibrate. […] The concentrations were determined by gas chromatography.
Series [3] can be described thus: Table I properties of amines: basicity, distribution ratios, flash point. In kind it is physicochemical. An excerpt: The preferred relatively high molecular weight amine of the present invention is dimethylaminopropylamine (DMAPA) or N,N-dimethyl-1,3-propanediamine. […] When DMAPA is subjected to common boiler temperatures and pressures of from 100, and preferably over 200, to 1500 psig, the DMAPA will partially decompose. The partial decomposition of DMAPA forms DMA and TMA.

A short description of series [4]: Lab scale test boiler, DMAPA feed, formation of DMA and TMA in feedwater (GC), 1,450 psig. In kind it is physicochemical.
Experiment in series [5]: as above
Conditions: for Feedwater composition: feedwater initially 200 ppm DMAPA; for Feedwater conductivity / Feedwater pH: DMAPA feed. In kind it is physicochemical. The source says: The following lab scale experiment verified the formation of DMA and TMA.
A research scale, electrically heated test boiler was charged with nitrogen sparged (a mechanical deaeration), demineralized water. The water was supplied by high pressure pump to a D-configuration stainless steel boiler having an internal volume of approximately 5 liters. Two 4000 watt Incoloy 800 resistance heaters produced a steam rate of approximately 17 lbs/hr at a steam pressure of 1,450 psig (correspond to a temperature of 593° F.).
Cycles of concentration were held at approximately 15 by controlling boiler blowdown rate to 1.1 lbs/hr. The saturated steam produced was routed back into the feed tank and mixed with the original feedwater. This follows common industry practice where for economy the maximum amount of condensate is returned to the boiler as feedwater. The feedwater initially contained 200 ppm of DMAPA (Aldrich 99%) and 1.4 ppm hydrazine for deaeration. The feedwater (to which the condensed steam was recycled) was analyzed by gas chromatography and DMA and TMA were quantitated by comparison to external standards.

Series [6] in a line: Decomposition of feed amine at boiler conditions from steam concentration (Table III).
Protocol: The effects of common boiler/condensate temperature and pressure on relatively high molecular weight amine was studied. The relatively high molecular weight amines methoxypropylamine (MOPA) and DMAPA were exposed to boiler condition and the steam concentrations of the feed amines measured. From this information the percent decomposition was calculated.
Series [7] is described as follows: Research boiler decomposition, 200 to 600 psig (FIG. 1). In kind it is physicochemical. Conditions: virtually any pressure, especially above about 200 psig. The source says: Additional testing in a research boiler was undertaken at pressures of from 200 to 600 psig in 100 psig steps. The high molecular weight amines tested included DMAPA, DEAE and MOPA. The boiler system was operated at 100% condensate return at 15 cycles. Feed tank, steam and blowdown samples were taken at the end of each run and analyzed by gas chromatograph (GC).
A condensate modeling system was used to simulate the boiler runs and estimate. The theoretical steam concentration possible if no amine decomposition occurred. Using the theoretical concentration and the analytical value obtained from GC analysis, the percent decomposition was calculated and the results summarized in FIG. 1.

Series [8] can be described thus: Additional testing of decomposition products of high molecular weight amines. Conditions: for formation from DMAPA: additional testing with DMAPA. In kind it is physicochemical.
For series [9] the following is noted: cited from earlier work. This is another data set of the same source.

With `CCNCC` [DEA, diethylamine], the Distribution ratio in series [1] (at 1000 psig) is listed as 28.

On to `CCN(CC)CCO` [DEAE, diethylaminoethanol], for which, in [2] (lower saturation pressures of this test (175 psig boiler)), the “hydrothermal stability” value is recorded as “hydrothermally stable”.

Turning to `CNC` [DMA, dimethylamine], in series [3], the “Flash Pt.” value is 60 °F. Moreover, the “Distribution ratio” value is recorded as 2.4 in [3] (100 psig), 2.1 in [3] (200 psig) and 3.3 in [3] (600 psig). In series [3] (single or first pKa), the “Basicity (pKa)” value came to 10.8. Besides, in series [4], the “volatility relative to DMAPA” value is “significantly more volatile than DMAPA”. For the same molecule, the pKa in series [1] was 10.77. Moreover, the “Distribution ratio (DR)” value in [1] (pressure not stated) was 2-5. The Feedwater composition in [5] (22 hrs., sample 12) worked out at 5 ppm; in series [5] (46 hrs., sample 13), 11 ppm; in [5] (79 hrs., sample 14) it was 20 ppm; in [5] (94 hrs., sample 15) it was 25 ppm.

For `CN(C)CCCN` [DMAPA, N,N-dimethyl-1,3-propanediamine], the “Steam concentration” value is 98.4 ppm in series [6] (200 psig, feedwater 106 ppm); 78.8 ppm in series [6] (600 psig, feedwater 106 ppm); 68.7 ppm in [6] (900 psig, feedwater 106 ppm); 37.3 ppm in series [6] (1450 psig, feedwater 106 ppm); 42 ppm in [2] (time 1); 42 ppm in [2] (time 2). In addition, the Steam concentration in series [2] (time 3) is recorded as 42 ppm; in series [2] (time 4) it was 42 ppm; in series [2] (time 5), 42 ppm; in [2] (time 6) it was 42 ppm; in [2] (time 7), 40 ppm. In [3], the “Flash Pt.” value was 84 °F. The “Distribution ratio” value in series [3] (100 psig) is recorded as 1.1; in series [3] (200 psig) it was 1.9; in series [3] (600 psig), 2.0. Besides, the pKa amounted to 8.2 in [3] (second of two pKa values, read-out: Basicity (pKa), second value) and 10 in series [3] (single or first pKa, read-out: Basicity (pKa)). Also, in [7], the “decomposition compared to MOPA” value was “significantly higher than MOPA”. Besides, the “concentration of DMA and TMA with time on DMAPA addition” value in series [5] (22 to 94 hrs.) was “steadily increasing concentration of DMA and TMA with time”. Further, the Feedwater conductivity turned out to be 160 uS in [5] (22 hrs.), 195 uS in series [5] (46 hrs.), 200 uS in [5] (79 hrs.) and 230 uS in series [5] (94 hrs.). In addition, the “Feedwater pH” value came out at 10.35 in series [5] (22 hrs.), 10.40 in series [5] (46 hrs.), 10.65 in series [5] (79 hrs.) and 10.35 in [5] (94 hrs.). Further, the Feedwater concentration in series [2] (time 1) amounted to 44 ppm; in [2] (time 2) it was 44 ppm; in [2] (time 3) it was 45 ppm; in series [2] (time 4), 44 ppm; in series [2] (time 5) it was 46 ppm; in series [2] (time 6), 44 ppm. In series [2] (time 7), this molecule gave a Feedwater concentration of 38 ppm.

In the case of `CN` [MA, methylamine], in series [8], the “formation from DMAPA” value was “confirmed”.

In the case of `COCCCN` [MOPA, methoxypropylamine], in [6] (1500 psig), the “stability at boiler conditions” value is reported as “essentially stable”. In series [6] (1500 psig, feedwater 61 ppm), the “% Decomposition” value was 4.9% and the “Steam concentration” value turned out to be 58 ppm. Further, in series [6] (2500 psig, feedwater 61 ppm), the “% Decomposition” value was determined as 24.6% and the “Steam concentration” value amounted to 46 ppm. In addition, in series [8] (temperature and pressure common to a typical boiler/condensate steam system), the “decomposition at boiler conditions” value is “do not decompose”.

With `C1COCCN1` [Morpholine], the Distribution ratio in series [9] (at atmospheric pressure) is reported as 0.4.

As to `CN(C)C` [TMA, trimethylamine], in series [3], the “Flash Pt.” value is 20 °F. For the same molecule, the “volatility relative to DMAPA” value in series [4] is “significantly more volatile than DMAPA”. In series [1] (at boiler pressures from 100 to 1500 psig), the “times more volatile than cyclohexylamine” value was 2-5 times. Moreover, the Feedwater composition in series [5] (22 hrs., sample 12) is reported as 9 ppm; in series [5] (46 hrs., sample 13) it was 16 ppm; in series [5] (79 hrs., sample 14), 25 ppm; in [5] (94 hrs., sample 15), 32 ppm.

Regarding `N` [ammonia], in [9] (at atmospheric pressure), the Distribution ratio is 10.0.

Consider `O=C=O` [carbon dioxide], for which the Distribution ratio in series [9] (depending upon temperature) is given as not below 100.

Consider `NC1CCCCC1` [cyclohexylamine], for which, in series [9] (at atmospheric pressure), the Distribution ratio is given as 4.0.

For `CC(O)CN(C)C` (centres unmarked) [dimethylisopropanol amine], in [9] (at atmospheric pressure), the Distribution ratio is 1.7.

In the case of dimethylaminopropanol [DMAP], the “formation from DMAPA” value in [8] is reported as “confirmed”.
